Assay results as given in US20070093520A1, “Method of treatment of diarrhea-predominant irritable bowel syndrome in a subject” (priority 2005, published 2007).

Tested on: diarrhea-predominant IBS subjects
Assay: 3007 Study: open-label 52-week safety study, adverse events and withdrawals
Details: Placebo/Cilansetron 2 mg

Cc1nccn1C[C@H]1CCc2c(c3cccc4c3n2CCC4)C1=O [cilansetron, (R)-(−)-4,5,6,8,9,10-hexahydro-10-[(2-methyl-1H-imidazol-1-yl)methyl]-11H-pyrido-[3,2,1-jk]-carbazol-11-one]
TEAE: Eructation: 0 n (%) | TEAE: Eye Injuries NEC: 0 n (%) | TEAE: Faecal Abnormality NOS: 1 (<1%) n (%) | TEAE: Faecal Impaction: 1 (<1%) n (%) | TEAE: Faecal Incontinence: 3 (1%) n (%) | TEAE: Faecal Occult Blood Positive: 8 (3%) n (%) | TEAE: Faeces Abnormal: 7 (3%) n (%) | TEAE: Faeces Hard: 5 (2%) n (%) | TEAE: Fibromyalgia: 0 n (%) | TEAE: Flatulence: 10 (4%) n (%) | TEAE: Flatulence, Bloating and Distension: 13 (5%) n (%) | TEAE: Food Poisoning NOS: 2 (<1%) n (%) | TEAE: Foot Fracture: 1 (<1%) n (%) | TEAE: Fractures and Dislocations NEC: 0 n (%) | TEAE: Frequent Bowel Movements: 0 n (%) | TEAE: Fungal Infection NOS: 1 (<1%) n (%) | TEAE: Fungal Infections NEC: 4 (1%) n (%) | TEAE: Gamma-Glutamyltransferase Increased: 3 (1%) n (%) | TEAE: Gastric Irritation: 0 n (%) | TEAE: Gastritis (Excl Infective): 0 n (%) | TEAE: Gastritis NOS: 0 n (%) | TEAE: Gastroenteritis NOS: 5 (2%) n (%) | TEAE: Gastroenteritis Viral NOS: 6 (2%) n (%) | TEAE: Gastrointestinal Atonic and Hypomotility Disorders NEC: 63 (23%) n (%) | TEAE: Gastrointestinal Disorders: 134 (48%) n (%) | TEAE: Gastrointestinal Disorders NEC: 2 (<1%) n (%) | TEAE: Gastrointestinal Dyskinetic Disorders: 2 (<1%) n (%) | TEAE: Gastrointestinal Histopathology Procedures: 12 (4%) n (%) | TEAE: Gastrointestinal Infections - Pathogen Class Unspecified: 5 (2%) n (%) | TEAE: Gastrointestinal Inflammatory Disorders NEC: 1 (<1%) n (%) | TEAE: Gastrointestinal Motility Disorder NOS: 1 (<1%) n (%) | TEAE: Gastrointestinal Mucosal Dystrophies and Secretion Disorders: 0 n (%) | TEAE: Gastrointestinal Signs and Symptoms NEC: 2 (<1%) n (%) | TEAE: Gastrointestinal Spastic and Hypermotility Disorders: 0 n (%) | TEAE: Gastrointestinal and Abdominal Pains (Excl Oral and Throat): 33 (12%) n (%) | TEAE: Gingival Abscess: 0 n (%) | TEAE: Gingival Atrophy: 0 n (%) | TEAE: Gingival Disorders NEC: 2 (<1%) n (%) | TEAE: Gingival Pain: 0 n (%) | TEAE: Gingival Pains: 0 n (%) | TEAE: Gingivitis: 2 (<1%) n (%) | TEAE: Gingivitis Infection NOS: 0 n (%) | TEAE: Glucose Urine Present: 0 n (%) | TEAE: Groin Pain: 0 n (%) | TEAE: Haematocrit Decreased: 0 n (%) | TEAE: Haemoglobin Decreased: 0 n (%) | TEAE: Haemorrhoidal Haemorrhage: 2 (<1%) n (%) | TEAE: Haemorrhoids: 7 (3%) n (%) | TEAE: Haemorrhoids Aggravated: 1 (<1%) n (%) | TEAE: Haemorrhoids and Gastrointestinal Varices (Excl Oesophageal): 9 (3%) n (%) | TEAE: Halitosis: 0 n (%) | TEAE: Headache NOS: 12 (4%) n (%) | TEAE: Headache NOS Aggravated: 2 (<1%) n (%) | TEAE: Headaches NEC: 14 (5%) n (%) | TEAE: Heart Rate Increased: 1 (<1%) n (%) | TEAE: Heart Rate and Pulse Investigations: 1 (<1%) n (%) | TEAE: Heat Exhaustion: 0 n (%) | TEAE: Heat Injuries (Excl Thermal Burns): 0 n (%) | TEAE: Helicobacter Pylori Antibody Positive: 0 n (%) | TEAE: Herpes Simplex: 1 (<1%) n (%) | TEAE: Herpes Simplex Aggravated: 0 n (%) | TEAE: Herpes Viral Infections: 2 (<1%) n (%) | TEAE: Herpes Zoster: 1 (<1%) n (%) | TEAE: Hiatus Hernia: 0 n (%) | TEAE: Hyperreflexia: 0 n (%) | TEAE: Hypoaesthesia: 1 (<1%) n (%) | TEAE: Infected Varicose Vein: 0 n (%) | TEAE: Infections NEC: 1 (<1%) n (%) | TEAE: Infections and Infestations: 67 (24%) n (%) | TEAE: Influenza: 7 (3%) n (%) | TEAE: Influenza Viral Infections: 7 (3%) n (%) | TEAE: Inguinal Hernia NOS: 1 (<1%) n (%) | TEAE: Inguinal Hernias: 1 (<1%) n (%) | TEAE: Injury, Poisoning and Procedural Complications: 21 (8%) n (%) | TEAE: Intervertebral Disc Degeneration NOS: 0 n (%) | TEAE: Intervertebral Disc Disorder NOS: 0 n (%) | TEAE: Intervertebral Disc Disorders NEC: 0 n (%) | TEAE: Intervertebral Disc Herniation: 0 n (%) | TEAE: Intestinal Haemorrhages: 4 (1%) n (%) | TEAE: Intraocular Pressure Increased: 1 (<1%) n (%) | TEAE: Investigations: 49 (18%) n (%) | TEAE: Irritable Bowel Syndrome: 0 n (%) | TEAE: Irritable Bowel Syndrome Aggravated: 0 n (%) | TEAE: Joint Related Disorders NEC: 1 (<1%) n (%) | TEAE: Joint Related Signs and Symptoms: 3 (1%) n (%) | TEAE: Joint Sprain: 3 (1%) n (%) | TEAE: Joint Swelling: 0 n (%) | TEAE: Kidney Infection NOS: 1 (<1%) n (%) | TEAE: Laceration: 3 (1%) n (%) | TEAE: Ligament Sprain: 1 (<1%) n (%) | TEAE: Limb Discomfort NOS: 1 (<1%) n (%) | TEAE: Limb Injuries NEC (Incl Traumatic Amputation): 3 (1%) n (%) | TEAE: Limb Injury NOS: 0 n (%) | TEAE: Lip and Palate Disorders NEC: 1 (<1%) n (%) | TEAE: Liver Function Analyses: 11 (4%) n (%) | TEAE: Liver Function Tests NOS Abnormal: 2 (<1%) n (%) | TEAE: Localised Infection: 1 (<1%) n (%) | TEAE: Localised Osteoarthritis: 0 n (%) | TEAE: Loss of Consciousness: 0 n (%) | TEAE: Lower Limb Fracture NOS: 1 (<1%) n (%) | TEAE: Lower Limb Fractures and Dislocations: 2 (<1%) n (%) | TEAE: Lower Respiratory Tract and Lung Infections: 7 (3%) n (%) | TEAE: Lymphocyte Count Increased: 0 n (%) | TEAE: Memory Loss (Excl Dementia): 0 n (%) | TEAE: Metabolic Bone Disorders: 1 (<1%) n (%) | TEAE: Metabolism Tests NEC: 2 (<1%) n (%) | TEAE: Migraine Headaches: 0 n (%) | TEAE: Migraine NOS: 0 n (%) | TEAE: Mineral and Electrolyte Analyses: 0 n (%) | TEAE: Monoarthritis: 1 (<1%) n (%) | TEAE: Monocyte Count Decreased: 1 (<1%) n (%) | TEAE: Monocyte Count Increased: 0 n (%) | TEAE: Mononeuropathies: 1 (<1%) n (%) | TEAE: Movement Disorder NOS: 1 (<1%) n (%) | TEAE: Muscle Cramps: 2 (<1%) n (%) | TEAE: Muscle Infections and Inflammations: 1 (<1%) n (%) | TEAE: Muscle Pains: 1 (<1%) n (%) | TEAE: Muscle Related Signs and Symptoms NEC: 2 (<1%) n (%) | TEAE: Muscle Spasms: 0 n (%) | TEAE: Muscle Strain: 3 (1%) n (%) | TEAE: Muscle Tone Abnormalities: 0 n (%) | TEAE: Muscle, Tendon and Ligament Injuries: 4 (1%) n (%) | TEAE: Musculoskeletal Chest Pain: 0 n (%) | TEAE: Musculoskeletal and Connective Tissue Disorders: 31 (11%) n (%) | TEAE: Musculoskeletal and Connective Tissue Signs and Symptoms NEC: 14 (5%) n (%) | TEAE: Musculoskeletal and Soft Tissue Imaging Procedures: 1 (<1%) n (%) | TEAE: Myalgia: 1 (<1%) n (%) | TEAE: Myasthenia Gravis: 1 (<1%) n (%) | TEAE: Mycoplasma Infections: 0 n (%) | TEAE: Myeloradiculopathy: 1 (<1%) n (%) | TEAE: Myositis: 1 (<1%) n (%) | TEAE: Nail Fungal Infection NOS: 2 (<1%) n (%) | TEAE: Nail Infection NOS: 0 n (%) | TEAE: Nasopharyngitis: 10 (4%) n (%) | TEAE: Nausea: 10 (4%) n (%) | TEAE: Nausea and Vomiting Symptoms: 14 (5%) n (%) | TEAE: Neck Pain: 0 n (%) | TEAE: Nervous System Disorders: 23 (8%) n (%) | TEAE: Neurological Signs and Symptoms NEC: 2 (<1%) n (%) | TEAE: Neuromuscular Junction Dysfunction: 1 (<1%) n (%) | TEAE: Neutrophil Count Decreased: 0 n (%) | TEAE: Night Cramps: 0 n (%) | TEAE: Nitrite Urine Present: 1 (<1%) n (%) | TEAE: Non-Accidental Overdose: 0 n (%) | TEAE: Non-Site Specific Injuries NEC: 6 (2%) n (%) | TEAE: Non-Site Specific Procedural Complications: 5 (2%) n (%) | TEAE: Ophthalmic Function Diagnostic Procedures: 1 (<1%) n (%) | TEAE: Oral Dryness and Saliva Altered: 1 (<1%) n (%) | TEAE: Osteoarthritis Aggravated: 0 n (%) | TEAE: Osteoarthropathies: 0 n (%) | TEAE: Osteopenia: 1 (<1%) n (%) | TEAE: Osteoporosis NOS: 1 (<1%) n (%) | TEAE: Otitis Media NOS: 1 (<1%) n (%) | TEAE: Overdoses: 0 n (%) | TEAE: Pain in Limb: 4 (1%) n (%) | TEAE: Paraesthesias and Dysaesthesias: 1 (<1%) n (%) | TEAE: Parkinson's Disease NOS: 0 n (%) | TEAE: Parkinson's Disease and Parkinsonism: 0 n (%) | TEAE: Periorbital Haematoma: 0 n (%) | TEAE: Peripheral Swelling: 0 n (%) | TEAE: Pharyngitis Streptococcal: 3 (1%) n (%) | TEAE: Physical Examination Procedures: 1 (<1%) n (%) | TEAE: Plantar Fasciitis: 2 (<1%) n (%) | TEAE: Pneumonia Mycoplasmal: 0 n (%) | TEAE: Pneumonia NOS: 1 (<1%) n (%) | TEAE: Popliteal Bursitis: 1 (<1%) n (%) | TEAE: Post Procedural Discomfort: 1 (<1%) n (%) | TEAE: Post Procedural Pain: 4 (1%) n (%) | TEAE: Proctalgia: 4 (1%) n (%)
